Data published in US4613695A, “N-nitroso compounds and compositions containing such compounds” (Aktiebolaget Leo, priority 1982, dated 1986).
Where two headings read alike, the source gives them in different places.

Legend:
[1] = tested on: Walker carcinosarcoma 256; assay: Walker carcinosarcoma 256 tumour growth inhibition (single p.o. dose); format: in vivo, Female Sprague Dawley rats; conditions: for ED50: Rattus norvegicus, po; for T.I. LD50/ED50: therapeutic index LD50/ED50; for T.I. LD50/ED50 / activity in the foregoing test (Walker carcinosarcoma 256): p.o.; for activity in the foregoing test (Walker carcinosarcoma 256): dose of 8 mg/kg, preliminary experiments
Source text: (§1) A therapeutic index is an indication of the therapeutic usefulness of a compound, and such an index may be defined in various ways. One type of therapeutic index commonly used is the ratio LD50/ED50, wherein LD50 is the dose that causes a 50 percent lethality, and ED50 is the dose that causes a 50 percent reduction of tumour size. Another type of therapeutic index, useful in evaluation of increasing survival time, is the ratio between maximum and minimum effective dose. Both these types of therapeutic indexes are used and given in the experimental results below.
(§2) The manner of administration of the compounds is by the oral (p. o.) route in each case.
(§3) Experimental animals: Female Sprague Dawley rats
(§4) Tumour implants: Tumour pieces with 2-3 mm diameter, implanted subcutaneously
(§5) Therapy: The compound is administered p. o. once on the day after the implantation
Termination: The animals are killed on the 9th day after implantation
(§6) Evaluation: Weight of tumour is determined in test animals and compared with those of control animals. For each compound the LD50 and ED50 dose (as defined above) are determined. The therapeutic index, T. I., (LD50/ED50) is calculated.

[2] = tested on: Lymphatic leukemia L1210; assay: Lymphatic leukemia L1210 survival test (survival time increase, long term survival, cure potential); format: in vivo, Female BDF1 mice; conditions: for minimal effective dose: Mus musculus, L1210, po; for T.I.s (long term survival; max.effect.dose/min.effect.dose): long term survival T·100/To >20%; for T.I.s = max.effect.dose/min.effect.dose: survival time increase, t·100/c ≥125%; for Dose or dose range for cure: ≥90% long term survivors on day 60; for median survival time percent of control: dose of 125 mg/kg, p.o., called significant activity
Procedure: The experimental design and interpretation of the results are in accordance with the standards set by the CCNSC (see reference (16)) and by the DR&D (see reference (17)).
Experimental animals: Female BDF1 mice
Tumour implants: 10^5 tumour cells implanted intraperitoneally (i. p.)
Therapy: The compounds were administered p. o. once on the day following the implantation.
Termination: The animals were killed on the 60th day after the implantation. Living animals on the 60th day are termed long term survivors.
(a) Evaluation of therapeutic dose range for survival time increase: Survival times at various dose levels are determined, and the survival time of the test animals (t) is expressed as the percentage of that of the control animals (c):
The maximum effective dose and the minimum effective dose required to achieve t·100/c≥125% are determined, and a therapeutic index as defined below is calculated:
T. I.s =max.effect.dose/min.effect.dose.
(b) Evaluation of therapeutic dose range for long term survival: Long time survival is determined at various dose levels and is expressed as surviving test animals on day 60 (T) as the percentage of that of the total number of test animals (To):
The maximum effective dose and the minimum effective dose to achieve long term survival T·100/To >20% are determined and a therapeutic index, T. I.1 s is calculated:
T. I.1s =max.effect.dose/min.effect.dose.
(c) Evaluation of cure potential: The normal survival time for test animals receiving no therapeutic treatment is 9-11 days. Surviving test animals on the 60th day after implantation showing no sign of tumour presence are regarded as cured animals. Long term survival is determined as under (b) above, and the effective dose or dose range to achieve a long term survival T·100/To ≥90% is determined as an evaluation of the cure potential.

[3] = in vivo; conditions: rat, po
Source text: as §1, §2, §3, §4, §5, §6

[4] = dose that causes a 50 percent reduction of tumour size, p.o. once, read-out: ED50
[5] = 1440 h, >20% long term survivors on day 60, p.o. once, read-out: Minimum effective dose (long term survival)
[6] = median survival time percent of control ≥ 125%, p.o. once, read-out: Minimum effective dose (survival time increase)
[7] = median survival time percent of control ≥ 125%, p.o. once
[8] = >20% long term survivors on day 60, p.o. once

SMILES	minimal effective dose [2, 5] [mg/kg]	minimal effective dose [2, 6] [mg/kg]	T.I.s (long term survival; max.effect.dose/min.effect.dose) [2]	Maximum effective dose (survival time increase) [2, 7] [mg/kg]	T.I.s = max.effect.dose/min.effect.dose [2]	Dose or dose range for cure ([2]; p.o. once) [mg/kg]	other results
CN(C)S(=O)(=O)CCNC(=O)N(CCCl)N=O [1:1, 1-(2-chloroethyl)-3-/2-(dimethylaminosulfonyl)ethyl/-1-nitrosourea]	31	8	2	63	8	31 to 63	ED50 [1, 4]: 0.25 mg/kg; T.I. LD50/ED50 [1]: 200; LD50 [3]: 50 mg/kg
COCCNS(=O)(=O)CCNC(=O)N(CCCl)N=O [1:8, 1-(2-chloroethyl)-3-(2-/2-methoxyethylaminosulfonyl/ethyl)-1-nitrosourea]	31	–	2	–	–	31 to 63	–
CCCCNS(=O)(=O)CCNC(=O)N(CCCl)N=O [1:9, 3-(2-/butylaminosulfonyl/ethyl)-1-(2-chloroethyl)-1-nitrosourea]	63	16	2	125	8	63	–
CC(C)(C)NS(=O)(=O)CCNC(=O)N(CCCl)N=O [1:10, 3-(2-/t-butylaminosulfonyl/ethyl)-1-(2-chloroethyl)-1-nitrosourea]	–	–	–	–	–	–	median survival time percent of control [2]: ≥ 125%
O=NN(CCCl)C(=O)NCCS(=O)(=O)NC1CCCCC1 [1:11, 1-(2-chloroethyl)-3-(2-/cyclohexylaminosulfonyl/ethyl)-1-nitrosourea]	63	31	2	250	8	125	–
O=NN(CCCl)C(=O)NCCS(=O)(=O)N(CCO)CCO [1:12, 3-(2-/bis(2-hydroxyethyl)aminosulfonyl/ethyl)-1-(2-chloroethyl)-1-nitrosourea]	–	–	–	–	–	125	–
CCCCC(C)NS(=O)(=O)CCNC(=O)N(CCCl)N=O (centres unmarked) [1:13, 1-(2-chloroethyl)-3-(2-/1-methylpentylaminosulfonyl/ethyl)-1nitrosourea]	–	–	–	–	–	–	median survival time percent of control [2]: ≥ 125%
CC(C)(CO)NS(=O)(=O)CCNC(=O)N(CCCl)N=O [1:16, 1-(2-chloroethyl)-3-(2-/1,1-dimethyl-2-hydroxyethylaminosulfonyl/ethyl)-1-nitrosourea]	–	–	–	–	–	250	–
CN(Cc1ccccc1)S(=O)(=O)CCNC(=O)N(CCCl)N=O [1:17, 3-(2-/N-benzyl-N-methylaminosulfonyl/ethyl)-1-(2-chloroethyl)-1-nitrosourea]	125	63	2	500	8	–	–
CN(c1ccccc1)S(=O)(=O)CCNC(=O)N(CCCl)N=O [1:18, 1-(2-chloroethyl)-3-(2-/N-methyl-N-phenylaminosulfonyl/ethyl)-1-nitrosourea]	–	–	–	–	–	–	median survival time percent of control [2]: ≥ 125%
CON(C)S(=O)(=O)CCNC(=O)N(CCCl)N=O [1:20, 1-(2-chloroethyl)-3-(2-/N-methoxy-N-methylaminosulfonyl/ethyl)-1-nitrosourea]	63	16	2	125	8	63 to 125	–
CN(C)S(=O)(=O)CCCNC(=O)N(CCCl)N=O [1:21, 1-(2-chloroethyl)-3-(3-/dimethylaminosulfonyl/propyl)-1-nitrosourea]	31	8	2	63	8	31 to 63	–
CN(C)S(=O)(=O)CCNS(=O)(=O)CCNC(=O)N(CCCl)N=O [1:23, 1-(2-chloroethyl)-3-(2-/2-(dimethylaminosulfonyl)ethylaminosulfonyl/ethyl)-1-nitrosourea]	63	–	2	–	–	125	–
COCCN(CCS(=O)(=O)N(C)C)C(=O)N(CCCl)N=O [1:48, 1-(2-chloroethyl)-3-(2-methoxyethyl)-3-/2-(dimethylaminosulfonyl)ethyl/-1-nitrosourea]	–	–	–	–	–	–	activity in the foregoing test (Walker carcinosarcoma 256) [1]: significant activity
CCN(C)S(=O)(=O)CCNC(=O)N(CCCl)N=O [1:52, 1-(2-chloroethyl)-3-(2-/N-ethyl-N-methylaminosulfonyl/ethyl)-1-nitrosourea]	31	–	2	–	–	–	activity in the foregoing test (Walker carcinosarcoma 256) [1]: significant activity
CCCN(CC)S(=O)(=O)CCNC(=O)N(CCCl)N=O [1:53, 1-(2-chloroethyl)-3-(2-/N-ethyl-N-propylaminosulfonyl/ethyl)-1-nitrosourea]	125	31	2	500	16	125 to 150	ED50 [1, 4]: 1.7 mg/kg
CCN(CCS(=O)(=O)N(C)C)C(=O)N(CCCl)N=O [1:54, 1-(2-chloroethyl)-3-(2-/dimethylaminosulfonyl/ethyl)-3-ethyl-1-nitrosourea]	–	–	–	–	–	–	activity in the foregoing test (Walker carcinosarcoma 256) [1]: significant activity; median survival time percent of control [2]: ≥ 125%
O=NN(CCCl)C(=O)NC1CCCCC1 [CCNU, 1-(2-chloroethyl)-3-cyclohexyl-1-nitrosourea, reference compound]	–	–	–	–	–	–	ED50 [1, 4]: 1 mg/kg; T.I. LD50/ED50 [1]: 90; LD50 [3]: 90 mg/kg
O=P1(N(CCCl)CCCl)NCCCO1 (centres unmarked) [Cyclophosphamide, reference compound]	–	–	–	–	–	–	ED50 [1]: 6 mg/kg; T.I. LD50/ED50 [1]: 30; LD50 [3]: 180 mg/kg
CC1CCC(NC(=O)N(CCCl)N=O)CC1 (centres unmarked) [Methyl-CCNU, 1-(2-chloroethyl)-3-(4-methyl-cyclohexyl)-1-nitrosourea, reference compound]	–	8	none	31	4	–	Maximum effective dose (long term survival) [2, 8]: none; Minimum effective dose (long term survival) [2, 8]: none
